In patent US7879822B2, “Stabilized sulforaphane” (Pharmagra Labs, Inc., priority 2007, dated 2011):

What was measured:
[1] = Extended stability study of stabilized sulforaphane compositions by HPLC (Example 2); assay type: physicochemical; details: stored in a freezer
Experimental: The sulforaphane formulations were analyzed via HPLC (UV detection at 254 nm) using an internal standard (DEET) method. A sulforaphane standard (stored in a freezer) was used to determine the response factor for each analysis.
A ca. 300 mg (carefully weighed) formulation sample was dissolved in 8 mL of internal standard solution (DEET in DMF, ca 2 mg/mL). The amount of ISTD solution was also carefully weighed. The sample was further diluted with 8 mL of nitrogen sparged DI water. The samples were sonicated for ˜10 minutes and filtered through a 0.45 μm nylon filter. The samples were then analyzed by HPLC UV detection at 254 nm.
Chromatographic Conditions: • Column: Agilent Eclipse XDB-C18, 5 μm, 250×4.6 mm, […] @ 30° C. • Solvent A: 0.1% Formic acid in H2O • Solvent B: MeCN • Gradient: 5% to 100% Solvent B in Solvent A over 30 minutes • Flow: 1.5 mL/minute • Detector: UV 254 nm, ESI-MS (pos/neg) for confirmation • Retention Times: Sulforaphane: 9.2 minutes DEET: 15.5 minutes
Analysis Results: The results are presented as percent of the “time zero” load versus time.

[2] = Stability analysis of sulforaphane-cyclodextrin formulations by HPLC (Example 1); assay type: physicochemical; details: stored in a freezer
Experimental: Analysis Overview: The sulforaphane formulations were analyzed via HPLC (UV detection at 254 nm) using an internal standard (DEET) method. An assumption is made that the sulforaphane completely disassociates from the cyclodextrin under the chromatographic conditions. A sulforaphane standard (stored in a freezer) is used to determine the response factor for each analysis.
Storage Conditions: The samples were stored under three conditions: Capped and at room temperature, capped and stored in the freezer (−30° C.), and open and stored in a 40° C. oven. These samples were analyzed for sulforaphane load over time. The stabilization of the different samples and different storage conditions may be seen in FIGS. 3-5.
Sample Preparation Example: A 20 mg to 50 mg (carefully weighed) formulation sample is dissolved in 1 mL of internal standard solution (DEET in DMF). The amount of ISTD solution is also carefully weighed. The sample is further diluted with 1 mL of nitrogen sparged deionized water. The samples are sonicated for approximately ten minutes and filtered through ha 0.45 μm nylon filter. The samples are then analyzed by HPLC UV detection at 254 nm.
Analysis Results: The results are presented as percent of theoretical load versus time (The calculation for theoretical was described above.)

Structure (SMILES): C[S+]([O-])CCCCN=C=S (racemic) [sulforaphane]
- stability of the standard (HPLC response factor over all analyses) [1]: stable
- stability of the standard (HPLC response factor over all analyses) [2]: stable
